Experimental data taken from ChEMBL document CHEMBL3217756, “Biological and computational evaluation of an oxadiazole derivative (MD77) as a new lead for direct STAT3 inhibitors” (Medchemcomm, 2012).

Legend:
[1] = biological target: Signal transducer and activator of transcription 1-alpha/beta (Homo sapiens) (UniProt P42224); experiment: Inhibition of SH2 domain of STAT1 (unknown origin) using FITC-GpYDKPHVL as substrate at 30 uM preincubated for 15 mins before substrate addition measured after 90 mins by alphascreen based assay
Sequence of Signal transducer and activator of transcription 1-alpha/beta (Homo sapiens) (P42224 whole entry, the tested form may be a part): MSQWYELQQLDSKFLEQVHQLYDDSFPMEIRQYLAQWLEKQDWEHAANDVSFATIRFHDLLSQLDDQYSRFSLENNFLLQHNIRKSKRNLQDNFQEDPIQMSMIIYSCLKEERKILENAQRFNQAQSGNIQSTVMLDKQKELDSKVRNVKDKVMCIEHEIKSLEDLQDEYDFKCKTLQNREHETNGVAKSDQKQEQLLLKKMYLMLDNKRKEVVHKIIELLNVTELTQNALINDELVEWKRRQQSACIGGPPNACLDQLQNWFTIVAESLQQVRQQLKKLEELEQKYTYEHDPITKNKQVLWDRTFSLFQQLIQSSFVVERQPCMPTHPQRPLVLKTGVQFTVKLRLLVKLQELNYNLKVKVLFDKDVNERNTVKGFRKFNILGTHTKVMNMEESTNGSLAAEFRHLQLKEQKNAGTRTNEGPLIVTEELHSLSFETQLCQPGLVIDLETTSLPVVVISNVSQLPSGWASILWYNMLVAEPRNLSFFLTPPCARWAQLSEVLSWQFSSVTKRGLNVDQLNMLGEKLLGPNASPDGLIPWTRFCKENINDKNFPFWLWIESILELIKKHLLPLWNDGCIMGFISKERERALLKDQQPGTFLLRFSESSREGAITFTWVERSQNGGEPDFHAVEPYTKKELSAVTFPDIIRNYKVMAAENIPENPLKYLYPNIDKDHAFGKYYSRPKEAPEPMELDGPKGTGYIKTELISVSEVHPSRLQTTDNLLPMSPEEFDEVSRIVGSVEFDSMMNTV

[2] = biological target: T1, Signal transducer and activator of transcription 3 (Homo sapiens, UniProt P40763); experiment: Inhibition of SH2 domain of STAT3 (unknown origin) using (FITC)-GpYLPQTV as substrate preincubated for 15 mins before substrate addition measured after 90 mins by alphascreen based assay
T1 sequence (P40763 whole entry, the tested form may be a part): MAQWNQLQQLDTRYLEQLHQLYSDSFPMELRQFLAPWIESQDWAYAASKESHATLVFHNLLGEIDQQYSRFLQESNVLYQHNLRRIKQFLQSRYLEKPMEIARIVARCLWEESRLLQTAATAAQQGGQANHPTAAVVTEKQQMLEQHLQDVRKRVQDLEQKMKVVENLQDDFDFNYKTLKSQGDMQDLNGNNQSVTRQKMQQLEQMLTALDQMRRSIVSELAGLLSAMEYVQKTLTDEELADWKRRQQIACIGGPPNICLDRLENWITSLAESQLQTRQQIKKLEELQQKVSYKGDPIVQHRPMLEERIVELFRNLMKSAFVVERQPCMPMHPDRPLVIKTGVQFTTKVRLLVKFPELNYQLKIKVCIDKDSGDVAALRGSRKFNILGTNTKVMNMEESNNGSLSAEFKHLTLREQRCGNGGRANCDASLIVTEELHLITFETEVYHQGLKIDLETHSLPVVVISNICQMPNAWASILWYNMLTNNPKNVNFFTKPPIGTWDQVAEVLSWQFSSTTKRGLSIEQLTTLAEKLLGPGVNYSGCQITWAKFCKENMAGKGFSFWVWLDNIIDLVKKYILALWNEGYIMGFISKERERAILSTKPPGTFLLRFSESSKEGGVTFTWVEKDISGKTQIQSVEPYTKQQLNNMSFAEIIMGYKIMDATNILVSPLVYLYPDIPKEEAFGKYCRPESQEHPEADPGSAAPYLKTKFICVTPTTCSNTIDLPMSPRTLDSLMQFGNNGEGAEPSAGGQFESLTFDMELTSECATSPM

[3] = biological target: Growth factor receptor-bound protein 2 (Homo sapiens, UniProt P62993); experiment: Inhibition of SH2 domain of GRB2 (unknown origin) using FITC-PSpYVNVQN as substrate preincubated for 15 mins before substrate addition measured after 90 mins by alphascreen based assay
Sequence of Growth factor receptor-bound protein 2 (P62993 whole entry, the tested form may be a part): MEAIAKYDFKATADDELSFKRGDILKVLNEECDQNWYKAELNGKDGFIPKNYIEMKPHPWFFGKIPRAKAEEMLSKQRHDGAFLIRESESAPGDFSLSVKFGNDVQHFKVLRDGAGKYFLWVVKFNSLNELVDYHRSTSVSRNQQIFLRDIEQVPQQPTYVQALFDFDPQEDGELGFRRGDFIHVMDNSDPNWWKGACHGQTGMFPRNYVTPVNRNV

[4] = biological target: T1, Signal transducer and activator of transcription 3; experiment: Inhibition of STAT3 in human HCT116 cells at 5 uM after 24 hrs by dual-light luciferase reporter gene assay; assay type: cell-based; settings: HCT-116
[5] = system: CCRF-CEM; experiment: Cytotoxicity against human CCRF-CEM cells after 48 hrs by sulforhodamine B assay; assay type: functional
[6] = system: MOLT-4; experiment: Cytotoxicity against human MOLT4 cells after 48 hrs by sulforhodamine B assay; assay type: functional; settings: MOLT-4, 48 h
[7] = system: RPMI-8226; experiment: Cytotoxicity against human RPMI8226 cells after 48 hrs by sulforhodamine B assay; assay type: functional; settings: RPMI-8226, 48 h
[8] = Cytotoxicity against human EKVX cells after 48 hrs by sulforhodamine B assay; assay type: functional
[9] = system: NCI-H460; experiment: Cytotoxicity against human NCI-H460 cells after 48 hrs by sulforhodamine B assay; assay type: functional; settings: NCI-H460, 48 h
[10] = system: COLO 205; experiment: Cytotoxicity against human COLO205 cells after 48 hrs by sulforhodamine B assay; assay type: functional; settings: COLO 205, 48 h
[11] = system: HCC 2998; experiment: Cytotoxicity against human HCC2998 cells after 48 hrs by sulforhodamine B assay; assay type: functional; settings: HCC 2998, 48 h
[12] = system: SF-268; experiment: Cytotoxicity against human SF268 cells after 48 hrs by sulforhodamine B assay; assay type: functional; settings: SF-268, 48 h
[13] = system: SF-295; experiment: Cytotoxicity against human SF295 cells after 48 hrs by sulforhodamine B assay; assay type: functional; settings: SF-295, 48 h
[14] = system: SF-539; experiment: Cytotoxicity against human SF539 cells after 48 hrs by sulforhodamine B assay; assay type: functional; settings: SF-539, 48 h
[15] = system: SNB-19; experiment: Cytotoxicity against human SNB19 cells after 48 hrs by sulforhodamine B assay; assay type: functional; settings: SNB-19, 48 h
[16] = system: MDA-MB-435; experiment: Cytotoxicity against human MDA-MB-435 cells after 48 hrs by sulforhodamine B assay; assay type: functional; settings: MDA-MB-435, 48 h
[17] = system: SK-MEL-28; experiment: Cytotoxicity against human SK-MEL-28 cells after 48 hrs by sulforhodamine B assay; assay type: functional; settings: SK-MEL-28, 48 h
[18] = Cytotoxicity against human UACC257 cells after 48 hrs by sulforhodamine B assay; assay type: functional; settings: UACC-257, 48 h
[19] = system: IGROV-1; experiment: Cytotoxicity against human IGROV1 cells after 48 hrs by sulforhodamine B assay; assay type: functional; settings: IGROV-1, 48 h
[20] = Cytotoxicity against human OVCAR8 cells after 48 hrs by sulforhodamine B assay; assay type: functional; settings: OVCAR-8, 48 h
[21] = system: CAKI-1; experiment: Cytotoxicity against human CAKI-1 cells after 48 hrs by sulforhodamine B assay; assay type: functional; settings: CAKI-1, 48 h
[22] = read-out: LC50 (the source's name)
[23] = read-out: pLC50 (the source's name) (converted)

Compound: O=C(Nc1nonc1-c1ccc(Cl)cc1)c1ccc(C(F)(F)F)cc1
- inhibition [1]: 94.6%
- IC50 [2]: 17.7 µM
- inhibition [2]: Dose-dependent effect
- IC50 [3]: > 100 µM
- inhibition [4]: 20%
- GI50 ([5]; read-out: GI50): 0.842 µM
- CC50 [5, 22]: > 100 µM
- TGI ([5]; read-out: TGI): 10.7 µM
- GI50 ([5]; read-out: pGI50 (converted)): 0.851 µM
- CC50 [5, 23]: > 100 µM
- TGI ([5]; read-out: pTGI (converted)): 10.7 µM
- GI50 ([6]; read-out: GI50): 1.67 µM
- CC50 [6, 22]: > 100 µM
- TGI ([6]; read-out: TGI): 6.05 µM
- GI50 ([6]; read-out: pGI50 (converted)): 1.66 µM
- CC50 [6, 23]: > 100 µM
- TGI ([6]; read-out: pTGI (converted)): 6.03 µM
- GI50 ([7]; read-out: GI50): 1.05 µM
- CC50 [7, 22]: > 100 µM
- TGI ([7]; read-out: TGI): 5.89 µM
- GI50 ([7]; read-out: pGI50 (converted)): 1.05 µM
- CC50 [7, 23]: > 100 µM
- TGI ([7]; read-out: pTGI (converted)): 5.89 µM
- GI50 ([8]; read-out: GI50): 3.4 µM
- CC50 [8, 22]: > 100 µM
- TGI ([8]; read-out: TGI): 33.6 µM
- GI50 ([8]; read-out: pGI50 (converted)): 3.39 µM
- CC50 [8, 23]: > 100 µM
- TGI ([8]; read-out: pTGI (converted)): 33.9 µM
- GI50 ([9]; read-out: GI50): 0.629 µM
- CC50 [9, 22]: > 100 µM
- GI50 ([9]; read-out: pGI50 (converted)): 0.631 µM
- CC50 [9, 23]: > 100 µM
- GI50 ([10]; read-out: GI50): 3.8 µM
- CC50 [10, 22]: 41.3 µM
- TGI ([10]; read-out: TGI): 12 µM
- GI50 ([10]; read-out: pGI50 (converted)): 3.8 µM
- CC50 [10, 23]: 41.7 µM
- TGI ([10]; read-out: pTGI (converted)): 12 µM
- GI50 ([11]; read-out: GI50): 3.63 µM
- CC50 [11, 22]: > 100 µM
- TGI ([11]; read-out: TGI): > 100 µM
- GI50 ([11]; read-out: pGI50 (converted)): 3.63 µM
- CC50 [11, 23]: > 100 µM
- TGI ([11]; read-out: pTGI): > 100 µM
- GI50 ([12]; read-out: GI50): 1.81 µM
- LC50 ([12]; read-out: LC50): > 100 µM
- TGI ([12]; read-out: TGI): > 100 µM
- GI50 ([12]; read-out: pGI50 (converted)): 1.82 µM
- LC50 ([12]; read-out: pLC50 (converted)): > 100 µM
- TGI ([12]; read-out: pTGI): > 100 µM
- GI50 ([13]; read-out: GI50): 1.02 µM
- CC50 [13, 22]: 43.4 µM
- TGI ([13]; read-out: TGI): 3.72 µM
- GI50 ([13]; read-out: pGI50 (converted)): 1.02 µM
- CC50 [13, 23]: > 100 µM
- TGI ([13]; read-out: pTGI (converted)): 3.72 µM
- GI50 ([14]; read-out: GI50): 3.68 µM
- CC50 [14, 22]: > 100 µM
- TGI ([14]; read-out: TGI): 17.1 µM
- GI50 ([14]; read-out: pGI50 (converted)): 3.72 µM
- CC50 [14, 23]: > 100 µM
- TGI ([14]; read-out: pTGI (converted)): 17 µM
- GI50 ([15]; read-out: GI50): 3.38 µM
- CC50 [15, 22]: > 100 µM
- TGI ([15]; read-out: TGI): > 100 µM
- GI50 ([15]; read-out: pGI50 (converted)): 3.39 µM
- CC50 [15, 23]: > 100 µM
- TGI ([15]; read-out: pTGI): > 100 µM
- GI50 ([16]; read-out: GI50): 2.15 µM
- LC50 ([16]; read-out: LC50): > 100 µM
- TGI ([16]; read-out: TGI): > 100 µM
- GI50 ([16]; read-out: pGI50 (converted)): 2.14 µM
- LC50 ([16]; read-out: pLC50 (converted)): > 100 µM
- TGI ([16]; read-out: pTGI): > 100 µM
- GI50 ([17]; read-out: GI50): 4.25 µM
- LC50 ([17]; read-out: LC50): > 100 µM
- TGI ([17]; read-out: TGI): > 100 µM
- GI50 ([17]; read-out: pGI50 (converted)): 4.27 µM
- LC50 ([17]; read-out: pLC50 (converted)): > 100 µM
- TGI ([17]; read-out: pTGI): > 100 µM
- GI50 ([18]; read-out: GI50): 2.17 µM
- LC50 (50% lethal concentration) ([18]; read-out: LC50): > 100 µM
- TGI ([18]; read-out: TGI): 9.02 µM
- GI50 ([18]; read-out: pGI50 (converted)): 2.19 µM
- LC50 (50% lethal concentration) ([18]; read-out: pLC50 (converted)): > 100 µM
- TGI ([18]; read-out: pTGI (converted)): 9.12 µM
- GI50 ([19]; read-out: GI50): 4.72 µM
- LC50 ([19]; read-out: LC50): > 100 µM
- TGI ([19]; read-out: TGI): > 100 µM
- GI50 ([19]; read-out: pGI50 (converted)): 4.68 µM
- LC50 ([19]; read-out: pLC50 (converted)): > 100 µM
- TGI ([19]; read-out: pTGI): > 100 µM
- GI50 ([20]; read-out: GI50): 2.87 µM
- CC50 [20, 22]: > 100 µM
- TGI ([20]; read-out: TGI): > 100 µM
- GI50 ([20]; read-out: pGI50 (converted)): 2.88 µM
- CC50 [20, 23]: > 100 µM
- TGI ([20]; read-out: pTGI): > 100 µM
- GI50 ([21]; read-out: GI50): 1.9 µM
- CC50 [21, 22]: > 100 µM
- TGI ([21]; read-out: TGI): 7.59 µM
- GI50 ([21]; read-out: pGI50 (converted)): 1.91 µM
- CC50 [21, 23]: > 100 µM
- TGI ([21]; read-out: pTGI (converted)): 7.59 µM
